From article PMC12655351, “Synthesis and Anticancer Activity Evaluation of New 5-((5-Nitrofuran-2-yl)allylidene)-2-thioxo-4-thiazolidinones” (Pharmaceuticals, 2025)
Values joined by “and” are separate entries in the source; they are usually repeats but may differ in a detail not shown here. Equal values may be shown once. Read-outs that look alike come from different tables or passages of the source.

Columns and labels:
SF-295 = assay: NCI-60 SRB screen; conditions: SF-295, 48 h
A498 = assay: cells; conditions: Homo sapiens, A498, 48 h
COLO 205 = assay: cells; conditions: Homo sapiens, COLO 205, 48 h
U251 = assay: NCI-60 SRB screen
K-562 = conditions: K-562, 48 h
KM12 = assay: NCI-60 SRB screen; conditions: KM12, 48 h
IGROV1 = assay: NCI-60 SRB screen
[1] = system: Non-small cell lung cancer; conditions: Non-small cell lung cancer subpanel
MDA-MB-435 = assay: cells; conditions: Homo sapiens, MDA-MB-435, 48 h
MALME-3M = assay: NCI-60 SRB screen; conditions: 48 h
ACHN = assay: NCI-60 SRB screen; conditions: 48 h
CNS cancer = CNS cancer subpanel
BT-549 = assay: cells; conditions: Homo sapiens, BT-549, 48 h, read-out: LC50, BT-549, 48 h
SK-OV-3 = assay: cells; conditions: Homo sapiens, SK-OV-3, 48 h
SF-268 = assay: cells; conditions: Homo sapiens, SF-268, 48 h
MCF-7 cell line = assay: Annexin V-FITC/propidium iodide flow cytometry; type: cell-based, human; conditions: 24 h
Method: The three chosen compounds, 2b, 12b, and 14b, were tested using Annexin V-FITC and propidium iodide to assess their effects on apoptosis induction on MCF-7 and MDA-MB-231 cell lines. To evaluate the population of cells, four states were determined: unstained cells (alive), cells stained with propidium iodide (necrotic), cells stained with FITC-labeled Annexin V (early apoptotic), and cells stained with both Annexin V and propidium iodide (late apoptotic). […] In a concentration of 5 μM the values were 8.5% and 12.2%, respectively. For 12b in a concentration equal to 1 μM, the obtained results showcased 7.2% of cells in early and late apoptosis and 0.7% in a state of necrosis. For 5 μM concentration results were 23.7% and 11.5%, respectively.
To conduct induction of apoptosis on MCF-7 and MDA-MB-231 cell lines, three compounds with the lowest IC50 values were selected (2b, 12b, 14b). The concentration of these compounds depended on the cell line. For MCF-7 cell line concentrations of 1 and 5 μM were used, while for MDA-MB-231 cell line concentrations were 5 and 10 μM. For both cell lines doxorubicin was used as a reference compound in 1 and 5 μM concentrations. This study was evaluated using a flow cytometer (BD FACSCanto II, Becton Dickinson Biosciences Systems, San Jose, CA, USA) and Annexin V binding Apoptosis Detection Kit II (BD Biosciences, San Diego, CA, USA). Cells were seeded in 6-well culture plates cultured in accordance with the previously described methodology. The medium was removed from wells and then cells were washed with PBS. A cell suspension was prepared in the binding buffer provided in the kit at a concentration of 1 × 10^6 cells/mL. A total of 100 µL of cell suspension was collected from each sample and transferred to the tubes. Afterwards, 5 µL of Annexin V-FITC and 4 µL of propidium iodide (PI) were added to each tube and then the tubes were incubated in the dark for 15 min at room temperature. After incubation, the suspension was supplemented to 300 µL with a binding buffer and immediately read in a BD FACSCanto II flow cytometer (Becton Dickinson Biosciences, San Jose, CA, USA), where 10,000 events per sample were measured. Results were analyzed using FACSDiva Software Version 6.1.3. (BD Biosciences Systems, San Jose, CA, USA).

HCC-2998 = assay: cells; conditions: Homo sapiens, HCC 2998, 48 h
PC-3 = conditions: PC-3, 48 h

## O=C(O)CCCCCN1C(=O)/C(=C/C=C/c2ccc([N+](=O)[O-])o2)SC1=S [14b, 6-((Z)-5-((E)-3-(5-nitrofuran-2-yl)allylidene)-4-oxo-2-thioxothiazolidin-3-yl)hexanoic acid]
TK-10; TK-10, 10 μM, 48 h
  growth GP: -95.04%
TK-10; TK-10, 48 h
  GI50: 1850 nM
  TGI: 3320 nM and 3470 nM
TK-10; human, 48 h
  CC50: 6330 nM
SF-295; Homo sapiens
  GI50: 1910 nM
SF-295; Homo sapiens, read-out: LC50, SF-295, 48 h
  CC50: 8720 nM
SF-295
  GI50: 1700 nM
  TGI: 4080 nM and 3360 nM
A498
  GI50: 8130 nM
COLO 205
  GI50: 1560 nM
COLO 205; read-out: LC50, COLO 205, 48 h
  CC50: 6050 nM
OVCAR-8; OVCAR-8, 48 h
  GI50: 300 nM
OVCAR-8; human, 48 h
  CC50: 9710 nM
NCI-H23; NCI-H23, 48 h
  GI50: 1230 nM
  TGI: 3100 nM and 2690 nM
NCI-H23; human, 48 h
  CC50: 5890 nM
U251; Homo sapiens, U-251, 48 h, U251, 48 h
  GI50: 570 nM
U251; Homo sapiens, U-251, 48 h, read-out: LC50, U251, 48 h
  CC50: 4860 nM
U251; U251, 48 h
  GI50: 340 nM
  TGI: 1920 nM and 1220 nM
K-562
  GI50: 280 nM
KM12; Homo sapiens
  GI50: 1420 nM
KM12
  GI50: 1190 nM
  TGI: 2830 nM and 2670 nM
IGROV1; Homo sapiens, IGROV-1, 48 h, read-out: LC50, IGROV1, 48 h
  CC50: 5010 nM
IGROV1; read-out: LC50, IGROV1, 48 h
  CC50: 2670 nM
[1]
  MG_MID TGI: 3850 nM
CAKI-1; CAKI-1, 10 μM, 48 h
  growth GP: -96.43%
CAKI-1; CAKI-1, 48 h
  GI50: 1400 nM
  TGI: 2090 nM and 2720 nM
MDA-MB-435
  GI50: 420 nM
MDA-MB-435; read-out: LC50, MDA-MB-435, 48 h
  CC50: 4470 nM
MALME-3M; Homo sapiens, Malme-3M
  GI50: 280 nM
MALME-3M; Homo sapiens, Malme-3M, read-out: LC50, MALME-3M, 48 h
  CC50: 2850 nM
MALME-3M; MALME-3M
  GI50: 240 nM
  TGI: 760 nM and 720 nM
MALME-3M; read-out: LC50, MALME-3M
  CC50: 2720 nM
ACHN; 10 μM
  growth GP: -99.76%
ACHN
  GI50: 1210 nM
  TGI: 2820 nM and 2460 nM
ACHN; Homo sapiens
  GI50: 1500 nM
ACHN; Homo sapiens, read-out: LC50, ACHN, 48 h
  CC50: 5310 nM
CNS cancer
  MG_MID TGI: 2620 nM
BT-549
  CC50: 5070 nM
SK-OV-3
  GI50: 1710 nM
SF-268
  GI50: 1260 nM
SF-268; read-out: LC50, SF-268, 48 h
  CC50: 5820 nM
MCF-7 cell line; MCF-7, 1 μM
  cells in late and early apoptosis combined: 6.9%
  necrotic cell population: 0.6%
MCF-7 cell line; MCF-7, 5 μM
  cells in late and early apoptosis combined: 29.2%
  necrotic cell population: 11.7%
HCC-2998
  GI50: 1780 nM
PC-3
  TGI: 3150 nM and 3300 nM
